We go through 13 compounds from US7842802B2, “Vinorelbine derivatives” (priority 2003, dated 2010).

Counter-ions that a name gives are not always drawn.

For data set [1], the system named is HeLa S-3 human cervical carcinoma cell line. Kind of data set: HeLa GI50 determination (SRB). The format is cell-based. The settings on record: Homo sapiens, HeLa S3, 48 h; HeLa S-3, 2 days of treatment, SRB; read-out: HeLa Cells GI50. How it is done: Growth inhibition (GI50) values were measured on the human cervical carcinoma cell line, HeLa S-3, which were selected for growth on plastic. The HeLa cell assay was based on the description of Skehan et al., J. Natl. Cancer Inst., 82:1107-12 (1990), which is hereby incorporated by reference in its entirety. HeLa cells were plated at 2×10^4 cells/well in 96 well plates. One day later, a control plate was fixed by the addition of TCA to 5%. After five rinses with tap water, the plate was air-dried and stored at 4° C. Test compounds were added to the remaining plates at 10-fold dilutions. Two days later, all plates were fixed as described above. Cells were then stained by the addition of 100 μL per well of 0.4% sulforhodamine B (SRB) in 1% acetic acid for 30 min at 4° C. Wells were then quickly rinsed 5× with 1% acetic acid and allowed to air dry. The SRB was then solubilized by the addition of 100 μL per well of unbuffered 10 mM Tris base. Dye was quantified by measuring absorbance at 490 nm on a Molecular Devices microplate reader. Growth inhibition was calculated according to the following equation: GI=100×(T−T0)/(C−T0), where the optical density (OD) of the test well after 2 days of treatment was T, the OD of the wells in the control plate on day 0 was T0 and C was the OD of untreated wells. Plots of percent growth inhibition versus inhibitor concentration were used to determine the GI50.

The test system of data set [2] is MCF-7 human breast carcinoma line. Kind of data set: MCF-7 GI50 determination (crystal violet). The format is cell-based. Particulars: Homo sapiens, MCF7, 96 h; MCF-7, 4 days of treatment, crystal violet; read-out: MCF-7 Cells GI50. As to the method: Growth inhibition (GI50) values were measured on the human breast carcinoma line, MCF-7. MCF-7 cells were plated at 2×10^4 cells/well in 96 well plates and grown for 24 hours in drug free media. On day 2, test compounds were added to the plates at 10-fold dilutions. Four days later, cells were fixed by the addition of glutaraldehyde to 0.75%. After 30 min, the fixed cells were extensively rinsed with distilled water and dried at room temperature for one hour. The cells were then stained with a 0.2% crystal violet solution for one hour at room temperature. Unbound stain was removed by ten rinses with tap water and plates were allowed to air dry for 30 min. The crystal violet was then solubilized by the addition of 10% acetic acid for 15 min and quantified by measuring absorbance at 570 nm on a Molecular Devices microplate reader. Growth inhibition was calculated according to the following equation: GI=[…], where the optical density (OD) of the test well after 4 days of treatment was T, the OD of the wells in the control plate on day 0 was T0. Plots of percent growth inhibition versus inhibitor concentration were used to determine the GI50.

By GI50 is commonly meant the concentration that inhibits growth by half. Take `CCC1=C[C@H]2CN(C1)Cc1c([nH]c3ccc(C)cc13)[C@@](C(=O)OC)(c1cc3c(cc1OC)N(C)[C@H]1[C@@](OC)(C(=O)OC)[C@H](OC(C)=O)C4C(CC)=CCN5CC[C@]31[C@H]45)C2` (stereo partly shown) [Example 33, 3,11′-dimethyl vinorelbine]: the GI50 came to 30 nM in data set [1] and 50 nM in data set [2].

In the case of `CCSc1ccc2[nH]c3c(c2c1)CN1CC(CC)=C[C@@H](C1)C[C@]3(C(=O)OC)c1cc2c(cc1OC)N(C)[C@H]1[C@@](O)(C(=O)OC)[C@H](OC(C)=O)C3C(CC)=CCN4CC[C@]21[C@H]34` (stereo partly shown) [Example 11, 11′-(ethylsulfanyl) vinorelbine], the GI50 worked out at 5 nM in data set [1] and 20 nM in data set [2].

`CCC1=C[C@H]2CN(C1)Cc1c([nH]c3ccc(SCc4ccccc4Cl)cc13)[C@@](C(=O)OC)(c1cc3c(cc1OC)N(C)[C@H]1[C@@](O)(C(=O)OC)[C@H](OC(C)=O)C4C(CC)=CCN5CC[C@]31[C@H]45)C2` (stereo partly shown) [Example 16, 11′-(2-chlorobenzylsulfanyl)vinorelbine]: the GI50 worked out at 300 nM in data set [1] and 500 nM in data set [2].

As for `CCCC(=O)/C=C/c1ccc2[nH]c3c(c2c1)CN1CC(CC)=C[C@@H](C1)C[C@]3(C(=O)OC)c1cc2c(cc1OC)N(C)[C@H]1[C@@](O)(C(=O)OC)[C@H](OC(C)=O)C3C(CC)=CCN4CC[C@]21[C@H]34` (stereo partly shown) [Example 4, 11′-(3-oxohex-1-enyl) vinorelbine], the GI50 in data set [1] came out at 400 nM; in data set [2], 300 nM.

For the compound `CCC1=C[C@H]2CN(C1)Cc1c([nH]c3ccc(/C=C/C(=O)O)cc13)[C@@](C(=O)OC)(c1cc3c(cc1OC)N(C)[C@H]1[C@@](O)(C(=O)OC)[C@H](OC(C)=O)C4C(CC)=CCN5CC[C@]31[C@H]45)C2` (stereo partly shown) [Example 6, 11′-(carboxyvinyl) vinorelbine], the results for the GI50 in data set [1] and in data set [2] were 800 nM and above 1000 nM, respectively.

On to `CCC1=C[C@H]2CN(C1)Cc1c([nH]c3ccc(Sc4cccc(O)c4)cc13)[C@@](C(=O)OC)(c1cc3c(cc1OC)N(C)[C@H]1[C@@](O)(C(=O)OC)[C@H](OC(C)=O)C4C(CC)=CCN5CC[C@]31[C@H]45)C2` (stereo partly shown) [Example 18, 11′-(3-hydroxyphenysulfanyl)vinorelbine], for which the GI50 was 30 nM in data set [1] and 300 nM in data set [2].

By melting point is commonly meant the temperature of the solid-liquid transition. Consider `CCC1=C[C@H]2CN(C1)Cc1c([nH]c3ccc(SCCC(=O)OC)cc13)[C@@](C(=O)OC)(c1cc3c(cc1OC)N(C)[C@H]1[C@@](O)(C(=O)OC)[C@H](OC(C)=O)C4C(CC)=CCN5CC[C@]31[C@H]45)C2` (stereo partly shown) (as salt: tartrate) [Example 7, 11′-(methoxycarbonylethylsulfanyl) vinorelbine], for which the melting point is 140 to 170 °C (dec.).

On to `CCC1=C[C@H]2CN(C1)Cc1c([nH]c3ccc(-c4cccc(O)c4)cc13)[C@@](C(=O)OC)(c1cc3c(cc1OC)N(C)[C@H]1[C@@](O)(C(=O)OC)[C@H](OC(C)=O)C4C(CC)=CCN5CC[C@]31[C@H]45)C2` (stereo partly shown) [Example 31, 11′-(3-hydroxyphenyl) vinorelbine], for which the GI50 in data set [1] was 300 nM; in data set [2], 600 nM.

For `CCC1=C[C@H]2CN(C1)Cc1c([nH]c3ccc(SCCCO)cc13)[C@@](C(=O)OC)(c1cc3c(cc1OC)N(C)[C@H]1[C@@](O)(C(=O)OC)[C@H](OC(C)=O)C4C(CC)=CCN5CC[C@]31[C@H]45)C2` (stereo partly shown) [Example 13, 11′-(3-hydroxypropylsulfanyl)vinorelbine], the results for the GI50 in data set [1] and in data set [2] were 20 nM and 30 nM, respectively.

In the case of `CCC1=C[C@H]2CN(C1)Cc1c([nH]c3ccc(Sc4ccccc4)cc13)[C@@](C(=O)OC)(c1cc3c(cc1OC)N(C)[C@H]1[C@@](O)(C(=O)OC)[C@H](OC(C)=O)C4C(CC)=CCN5CC[C@]31[C@H]45)C2` (stereo partly shown) [Example 17, 11′-(phenysulfanyl) vinorelbine], the GI50 in data set [1] was 20 nM; in data set [2], 300 nM.

As to `C=Cc1ccc2[nH]c3c(c2c1)CN1CC(CC)=C[C@@H](C1)C[C@]3(C(=O)OC)c1cc2c(cc1OC)N(C)[C@H]1[C@@](O)(C(=O)OC)[C@H](OC(C)=O)C3C(CC)=CCN4CC[C@]21[C@H]34` (stereo partly shown) [Example 3, 11′-vinylvinorelbine], the GI50 in data set [1] turned out to be 3 nM; in data set [2], 7 nM.

As for `CCC1=C[C@H]2CN(C1)Cc1c([nH]c3ccc(C(=O)OCC(Cl)Cl)cc13)[C@@](C(=O)OC)(c1cc3c(cc1OC)N(C)[C@H]1[C@@](O)(C(=O)OC)[C@H](OC(C)=O)C4C(CC)=CCN5CC[C@]31[C@H]45)C2` (stereo partly shown) [Example 29, 11′-(2,2-dichloroethoxycarbonyl)vinorelbine], the GI50 in data set [1] was found to be 70 nM; in data set [2] it was 300 nM.

Take `CCC1=C[C@H]2CN(C1)Cc1c([nH]c3ccc(N)cc13)[C@@](C(=O)OC)(c1cc3c(cc1OC)N(C)[C@H]1[C@@](O)(C(=O)OC)[C@H](OC(C)=O)C4C(CC)=CCN5CC[C@]31[C@H]45)C2` (stereo partly shown) [Example 35, 11′-aminovinorelbine]: the results for the GI50 in data set [1] and in data set [2] were 300 nM and 600 nM, respectively.
